{"source": "patent US9855285B2", "about": "“Method of inhibiting the expression of IL-22 in activated T-cells” (LEO PHARMA A/S, priority 2012, dated 2018)", "key": {"human Th1/Th17 cells": {"system": "human Th1/Th17 cells", "experiment": "In vitro assay using activated human T-cells differentiated into Th1/Th17 cells; cytokines released in the supernatant", "assay_type": "cell-based", "description": "CD4+ T cells were first negatively isolated from human peripheral blood of healthy donors using RosetteSep® separation system from STEMCELL.\nSubsequently, CD4+ T cells were activated by crosslinking the cell surface proteins CD3 and CD28 with specific antibodies.\nTo induce Th1/Th17 differentiation, activated CD4+ T cells were then cultured in flasks at density of 2-5×10^6 cells per ml of culture in X-VIVO 15 serum-free medium in presence of growth and differentiation factors cocktail, containing the following: • rhIL-2 at 10 ng/ml • rhTGF-β at 10 ng/ml • rhIL-1β at 10 ng/ml • rhIL-6 at 10 ng/ml • rhIL-23 at 20 ng/ml • Antibody anti-IL-4 at 1 μg/ml • Antibody anti-IL-13 at 1 μg/ml\nCulture media had been refreshed every second day and T cells were cultured up to 5-7 days to allow a complete differentiation into Th1/Th17 cells.\nOnce the T cells are differentiated into Th1/Th17 cells, cells are rinsed from the differentiation media and placed in assay media (X-VIVO 15 media containing 10 ng/ml rhIL-2 only) at the final concentration of 1-1.5×10^6 cells/ml in wells with 0.250 ml cell suspension per well (0.25-0.375×10^6 cells/well/sample) with and without test compound treatment for 24 hours. At the termination time point, the effect of anti-inflammatory drugs is assessed by measuring the level of phenotype related cytokines released in the cell culture supernatants. Duplicates and cells from different donors are used for each treatment.\nAfter differentiation for 5-6 days, all the cells were carefully washed and placed in growth media containing IL-2 (X-VIVO+10 ng/ml IL-2) at a final concentration of 1-1.5×10^6 cells/ml. […] Assays were performed in duplicates and included undifferentiated human T cells (negative control) and treated or untreated differentiated human Th1/Th17 cells. All cells were cultured under similar conditions in assay media containing 0.1% DMSO with or without test compounds.\nTh1/Th17 cells were treated for 24 hours with or without test compounds.\nSupernatants were collected from all samples and assessed for cytokine expression (IL-6, IL-8, IL-17, IL-22 and TNF-α). All cytokines were measured (as pg/ml) using MSD kits except IL-22 which was measured by ELISA.\nData analysis and graphs were made in Excel or GraphPad Prism. Statistical analysis was made using 1 way ANOVA corrected by Dunnett's Multiple Comparison Test."}, "[1]": {"system": "keratinocyte proliferation", "details": "cited from earlier work"}, "[2]": {"details": "test compound alone, 24 hours, ELISA"}, "[3]": {"details": "vitamin D analogue 100 nM in combination with Compound A 1 μM"}, "[4]": {"details": "PDE4 inhibitor 1 μM alone or in combination with calcipotriol 100 nM"}}, "note": "Entries after “also recorded” stand apart in the source; their conditions may differ.", "data": [{"smiles": "C=C1/C(=C\\C=C2/CCC[C@]3(C)[C@@H]([C@H](C)/C=C/[C@@H](O)C4CC4)CC[C@@H]23)C[C@@H](O)C[C@@H]1O", "note": "[calcipotriol, Calcipotriol]", "values": [{"measurement": "upregulation of IL-22 expression", "setting": "human Th1/Th17 cells; calcipotriol 10 pM together with Compound A 1 μM", "value": "lost"}, {"measurement": "upregulation of IL-22 expression", "setting": "human Th1/Th17 cells; calcipotriol 100 pM together with Compound A 1 μM", "value": "inhibited the upregulation"}, {"measurement": "upregulation of IL-22 expression", "setting": "human Th1/Th17 cells; calcipotriol 500 pM together with Compound A 1 μM", "value": "inhibited the upregulation"}, {"measurement": "upregulation of IL-22 expression", "setting": "human Th1/Th17 cells; calcipotriol 1 nM together with Compound A 1 μM", "value": "inhibited the upregulation"}, {"measurement": "upregulation of IL-22 expression", "setting": "human Th1/Th17 cells; calcipotriol 100 nM together with Compound A 1 μM", "value": "inhibited the upregulation"}, {"measurement": "expression of IL-6", "setting": "human Th1/Th17 cells; test compound alone, 24 hours", "value": "did not have any effect"}, {"measurement": "expression of IL-8", "setting": "human Th1/Th17 cells; test compound alone, 24 hours", "value": "strongly inhibited"}, {"measurement": "expression of IL-17", "setting": "human Th1/Th17 cells; test compound alone, 24 hours", "value": "to some extent"}, {"measurement": "expression of TNFα", "setting": "human Th1/Th17 cells; test compound alone, 24 hours", "value": "did not have any effect"}, {"measurement": "expression of IL-22", "setting": "human Th1/Th17 cells; [2]", "value": "strongly inhibiting; also recorded: downregulate; also recorded: strongly inhibited"}, {"measurement": "expression of IL-22", "setting": "human Th1/Th17 cells; test compound alone, 24 hours, ELISA, listed as Calcipotriol", "value": "significantly inhibits"}, {"measurement": "expression of IL-8", "setting": "human Th1/Th17 cells; test compound alone, 24 hours, listed as Calcipotriol", "value": "inhibits"}, {"measurement": "expression and secretion of IL-22", "setting": "human Th1/Th17 cells; vitamin D analogue 100 nM alone, compared to vehicle treated control", "value": "significantly inhibits"}, {"measurement": "expression and secretion of IL-22", "setting": "human Th1/Th17 cells; [3]", "value": "comparable efficacy as Calcipotriol"}, {"measurement": "concentration required to affect keratinocyte proliferation", "setting": "[1]", "value": 28, "unit": "nM"}]}, {"smiles": "COc1cccc(Nc2c(C(N)=O)cnc3c(C)cc(S(=O)(=O)c4cccc(C(=O)N(C)C)c4)cc23)c1.Cl", "note": "[GSK256066, 6-[3-(N,N-dimethylcarbamoyl)phenylsulfonyl]-4-(3-methoxyphenylamino)-8-methylquinoline-3-carboxamide hydrochloride]", "values": [{"measurement": "expression and secretion of IL-22", "setting": "human Th1/Th17 cells; [4]", "value": "comparable efficacy to Compound A"}]}, {"smiles": "N#Cc1ccc(Oc2ccc3c(c2)COB3O)cc1", "note": "[AN2728, 4-(1-hydroxy-1,3-dihydro-2,1-benzoxaborol-5-yloxy)benzonitrile]", "values": [{"measurement": "expression and secretion of IL-22", "setting": "human Th1/Th17 cells; [4]", "value": "comparable efficacy to Compound A"}]}, {"smiles": "C=C1/C(=C\\C=C2/CCC[C@]3(C)[C@@H]([C@H](C)OCCC(C)(C)O)CC[C@@H]23)C[C@@H](O)C[C@@H]1O", "note": "[maxacalcitol]", "values": [{"measurement": "expression of IL-22", "setting": "human Th1/Th17 cells; [2]", "value": "downregulate"}, {"measurement": "expression and secretion of IL-22", "setting": "human Th1/Th17 cells; [3]", "value": "comparable efficacy as Calcipotriol"}]}, {"smiles": "C=C1/C(=C\\C=C2/CCC[C@]3(C)[C@@H]([C@H](C)CC[C@@H](O)C(C)C)CC[C@@H]23)C[C@@H](O)C[C@@H]1O", "note": "[tacalcitol]", "values": [{"measurement": "expression of IL-22", "setting": "human Th1/Th17 cells; [2]", "value": "downregulate"}, {"measurement": "expression and secretion of IL-22", "setting": "human Th1/Th17 cells; [3]", "value": "comparable efficacy as Calcipotriol"}]}, {"smiles": "CCCNC(=O)COc1c(C(=O)Cc2ccnc(Cl)c2Cl)ccc(OC)c1OC", "note": "[Compound A, 2-{6-[2-(2,3-dichloropyridin-4-yl)acetyl]-2,3-dimethoxyphenoxy}-N-propylacetamide]", "values": [{"measurement": "expression of IL-22", "setting": "human Th1/Th17 cells; PDE4 inhibitor 1 μM alone, compared to vehicle treated control", "value": "increases"}, {"measurement": "expression of IL-6", "setting": "human Th1/Th17 cells; test compound alone, 24 hours", "value": "weakly; also recorded: significantly inhibits"}, {"measurement": "expression of IL-8", "setting": "human Th1/Th17 cells; test compound alone, 24 hours", "value": "did not have any effect"}, {"measurement": "expression of IL-17", "setting": "human Th1/Th17 cells; test compound alone, 24 hours", "value": "to some degree"}, {"measurement": "expression of TNFα", "setting": "human Th1/Th17 cells; test compound alone, 24 hours", "value": "strongly decreased; also recorded: significantly inhibits"}, {"measurement": "expression of IL-22", "setting": "human Th1/Th17 cells; [2]", "value": "dose-dependent upregulation; also recorded: increased; also recorded: significantly increases"}]}, {"smiles": "C=C1/C(=C\\C=C2/CCC[C@]3(C)[C@@H]([C@H](C)CCCC(C)(C)O)CC[C@@H]23)C[C@@H](O)C[C@@H]1O", "note": "[calcitriol]", "values": [{"measurement": "expression of IL-22", "setting": "human Th1/Th17 cells; [2]", "value": "downregulate"}, {"measurement": "expression and secretion of IL-22", "setting": "human Th1/Th17 cells; [3]", "value": "comparable efficacy as Calcipotriol"}]}, {"smiles": "O=C(Nc1c(Cl)cncc1Cl)c1ccc(OC(F)F)c(OCC2CC2)c1", "note": "[Roflumilast, 3-(cyclopropylmethoxy)-N-(3,5-dichloropyridin-4-yl)4-(difluoromethoxy)benzamide]", "values": [{"measurement": "expression and secretion of IL-22", "setting": "human Th1/Th17 cells; [4]", "value": "comparable efficacy to Compound A"}]}, {"smiles": "CCOc1ccc(-c2nc(-c3cccc(C(=O)O)n3)cs2)cc1OCC", "note": "[Tetomilast, 6-[2-(3,4-diethoxyphenyl)thiazol-4-yl]pyridine-2-caboxylic acid]", "values": [{"measurement": "expression and secretion of IL-22", "setting": "human Th1/Th17 cells; [4]", "value": "comparable efficacy to Compound A"}]}]}
